Converted amounts (≈) assume the structure as drawn.
Assays:
[1] = system: Salmonella typhi; experiment: Antibacterial activity against Salmonella typhi MTCC 98 by broth microdilution assay method; assay type: functional, Salmonella enterica subsp. enterica serovar Typhi; conditions: Salmonella enterica
[2] = system: Escherichia coli; experiment: Antibacterial activity against Escherichia coli MTCC 443 by broth microdilution assay method; assay type: functional
[3] = system: Streptococcus pneumoniae; experiment: Antibacterial activity against Streptococcus pneumoniae MTCC 1936 by broth microdilution assay method; assay type: functional
[4] = system: Mycobacterium tuberculosis; experiment: Antitubercular activity against Mycobacterium tuberculosis H37Rv at 6 ug/mL; assay type: functional
[5] = system: Clostridium tetani; experiment: Antibacterial activity against Clostridium tetani MTCC 449 by broth microdilution assay method; assay type: functional
[6] = system: Vibrio cholerae; experiment: Antibacterial activity against Vibrio cholerae MTCC 3906 by broth microdilution assay method; assay type: functional
[7] = system: Bacillus subtilis; experiment: Antibacterial activity against Bacillus subtilis MTCC 441 by broth microdilution assay method; assay type: functional
[8] = system: Plasmodium falciparum; experiment: Antimalarial activity against Plasmodium falciparum; assay type: functional

SMILES	MIC [1] [µg/mL]	MIC [2] [µg/mL]	MIC [3] [µg/mL]	inhibition at 6 µg/mL [4] [%]	MIC [5] [µg/mL]	MIC [6] [µg/mL]	MIC [7] [µg/mL]	IC50 [8] [µg/mL]
O=C1CCSC(c2ccc(Cl)cc2)N1CCCCNc1ccnc2cc(Cl)ccc12 (centres undefined)	125 (≈ 271 µM)	250 (≈ 543 µM)	250 (≈ 543 µM)	60	125 (≈ 271 µM)	62.5 (≈ 136 µM)	250 (≈ 543 µM)	0.14 (≈ 0.304 µM)
COc1ccc(C2SCCC(=O)N2CCCNc2ccnc3cc(Cl)ccc23)cc1 (centres undefined)	500 (≈ 1130 µM)	250 (≈ 566 µM)	125 (≈ 283 µM)	57	250 (≈ 566 µM)	250 (≈ 566 µM)	125 (≈ 283 µM)	0.52 (≈ 1.18 µM)
O=C1CCSC(c2ccc(Cl)cc2)N1CCCNc1ccnc2cc(Cl)ccc12 (centres undefined)	250 (≈ 560 µM)	125 (≈ 280 µM)	62.5 (≈ 140 µM)	67	250 (≈ 560 µM)	250 (≈ 560 µM)	125 (≈ 280 µM)	0.12 (≈ 0.269 µM)
O=C1CCSC(c2ccc(Br)cc2)N1CCCCNc1ccnc2cc(Cl)ccc12 (centres undefined)	62.5 (≈ 124 µM)	62.5 (≈ 124 µM)	100 (≈ 198 µM)	82	250 (≈ 495 µM)	125 (≈ 248 µM)	100 (≈ 198 µM)	0.064 (≈ 0.127 µM)
O=C1CCSC(c2cccc(Cl)c2)N1CCCNc1ccnc2cc(Cl)ccc12 (centres undefined)	250 (≈ 560 µM)	250 (≈ 560 µM)	250 (≈ 560 µM)	55	250 (≈ 560 µM)	250 (≈ 560 µM)	125 (≈ 280 µM)	1.62 (≈ 3.63 µM)
COc1cccc(C2SCCC(=O)N2NC(=O)c2cnc3c(C(F)(F)F)cccc3c2O)c1 (centres undefined)	250 (≈ 524 µM)	250 (≈ 524 µM)	500 (≈ 1050 µM)	65	500 (≈ 1050 µM)	250 (≈ 524 µM)	250 (≈ 524 µM)	1.7 (≈ 3.56 µM)
O=C1CCSC(c2cccc(F)c2)N1CCCCNc1ccnc2cc(Cl)ccc12 (centres undefined)	100 (≈ 225 µM)	125 (≈ 282 µM)	250 (≈ 563 µM)	55	125 (≈ 282 µM)	125 (≈ 282 µM)	250 (≈ 563 µM)	1.31 (≈ 2.95 µM)
O=C1CCSC(c2ccc(O)cc2)N1CCCNc1ccnc2cc(Cl)ccc12 (centres undefined)	62.5 (≈ 146 µM)	250 (≈ 584 µM)	125 (≈ 292 µM)	42	250 (≈ 584 µM)	250 (≈ 584 µM)	250 (≈ 584 µM)	1.14 (≈ 2.66 µM)
COc1cccc(C2SCCC(=O)N2CCCNc2ccnc3cc(Cl)ccc23)c1 (centres undefined)	250 (≈ 566 µM)	250 (≈ 566 µM)	250 (≈ 566 µM)	51	500 (≈ 1130 µM)	500 (≈ 1130 µM)	250 (≈ 566 µM)	1.87 (≈ 4.23 µM)
Cc1ccc(C2SCCC(=O)N2NC(=O)c2cnc3c(C(F)(F)F)cccc3c2O)cc1 (centres undefined)	250 (≈ 542 µM)	500 (≈ 1080 µM)	500 (≈ 1080 µM)	60	250 (≈ 542 µM)	500 (≈ 1080 µM)	250 (≈ 542 µM)	1.56 (≈ 3.38 µM)
O=C1CCSC(c2ccc(O)cc2)N1CCNc1ccnc2cc(Cl)ccc12 (centres undefined)	250 (≈ 604 µM)	500 (≈ 1210 µM)	250 (≈ 604 µM)	74	250 (≈ 604 µM)	250 (≈ 604 µM)	62.5 (≈ 151 µM)	1.78 (≈ 4.3 µM)
O=C(NN1C(=O)CCSC1c1ccc(F)cc1)c1cnc2c(C(F)(F)F)cccc2c1O (centres undefined)	250 (≈ 537 µM)	125 (≈ 269 µM)	125 (≈ 269 µM)	92	15.6 (≈ 33.5 µM)	125 (≈ 269 µM)	31.2 (≈ 67.1 µM)	0.052 (≈ 0.112 µM)
COc1cccc(C2SCCC(=O)N2CCCCNc2ccnc3cc(Cl)ccc23)c1 (centres undefined)	250 (≈ 548 µM)	250 (≈ 548 µM)	500 (≈ 1100 µM)	42	250 (≈ 548 µM)	125 (≈ 274 µM)	500 (≈ 1100 µM)	2.14 (≈ 4.69 µM)
O=C1CCSC(c2ccccc2)N1CCCCNc1ccnc2cc(Cl)ccc12 (centres undefined)	500 (≈ 1170 µM)	500 (≈ 1170 µM)	500 (≈ 1170 µM)	32	500 (≈ 1170 µM)	500 (≈ 1170 µM)	500 (≈ 1170 µM)	3.12 (≈ 7.32 µM)
O=C1CCSC(c2cccc(Cl)c2)N1CCNc1ccnc2cc(Cl)ccc12 (centres undefined)	250 (≈ 578 µM)	125 (≈ 289 µM)	125 (≈ 289 µM)	60	250 (≈ 578 µM)	250 (≈ 578 µM)	250 (≈ 578 µM)	1.57 (≈ 3.63 µM)
COc1ccc(C2SCCC(=O)N2NC(=O)c2cnc3c(C(F)(F)F)cccc3c2O)cc1 (centres undefined)	125 (≈ 262 µM)	250 (≈ 524 µM)	250 (≈ 524 µM)	70	250 (≈ 524 µM)	250 (≈ 524 µM)	125 (≈ 262 µM)	1.45 (≈ 3.04 µM)
COc1ccc(C2SCCC(=O)N2CCCCNc2ccnc3cc(Cl)ccc23)cc1 (centres undefined)	250 (≈ 548 µM)	500 (≈ 1100 µM)	250 (≈ 548 µM)	48	250 (≈ 548 µM)	125 (≈ 274 µM)	250 (≈ 548 µM)	0.81 (≈ 1.78 µM)
O=C1CCSC(c2cccc(F)c2)N1CCNc1ccnc2cc(Cl)ccc12 (centres undefined)	250 (≈ 601 µM)	62.5 (≈ 150 µM)	125 (≈ 301 µM)	66	250 (≈ 601 µM)	250 (≈ 601 µM)	250 (≈ 601 µM)	1.05 (≈ 2.52 µM)

Reference: ChEMBL document CHEMBL4002605, “Synthesis, identification and in vitro biological evaluation of some novel quinoline incorporated 1,3-thiazinan-4-one derivatives” (Bioorg Med Chem Lett, 2017)
